In brackets after ≈: the same amount, converted by molar mass.
Columns and labels:
[1] = Single-dose oral pharmacokinetics of CBD in healthy dogs; type: in vivo; conditions: dog, serum
Procedure: (§1) The single-dose oral pharmacokinetics of CBD and an assessment of safety and adverse effects during 12-week administration using a hemp-based product in healthy dogs and cats were determined in this study. […] More details about this study can be found in “Deabold, K. A.; Schwark, W. S.; Wolf, L.; Wakshlag, J. J., Single Dose Pharmacokinetics and Preliminary Safety Assessment with Use of CBD-Rich Hemp Nutraceutical in Healthy Dogs and Cats, Animals 2019, 9, 832, DOI 10.3390/ani9100832,” which is incorporated herein by reference in its entirety.

[2] = Single-dose oral pharmacokinetics of CBD in healthy cats; type: in vivo; conditions: serum, single oral dose 2 mg/kg total CBD/CBDA
Procedure: as §1

CYP3A12 = CYP3A12 (Canis lupus familiaris, UniProt P24463); experiment: CYP3A12 activity inhibition in pooled dog liver microsomes
Chain of CYP3A12 (P24463 whole entry): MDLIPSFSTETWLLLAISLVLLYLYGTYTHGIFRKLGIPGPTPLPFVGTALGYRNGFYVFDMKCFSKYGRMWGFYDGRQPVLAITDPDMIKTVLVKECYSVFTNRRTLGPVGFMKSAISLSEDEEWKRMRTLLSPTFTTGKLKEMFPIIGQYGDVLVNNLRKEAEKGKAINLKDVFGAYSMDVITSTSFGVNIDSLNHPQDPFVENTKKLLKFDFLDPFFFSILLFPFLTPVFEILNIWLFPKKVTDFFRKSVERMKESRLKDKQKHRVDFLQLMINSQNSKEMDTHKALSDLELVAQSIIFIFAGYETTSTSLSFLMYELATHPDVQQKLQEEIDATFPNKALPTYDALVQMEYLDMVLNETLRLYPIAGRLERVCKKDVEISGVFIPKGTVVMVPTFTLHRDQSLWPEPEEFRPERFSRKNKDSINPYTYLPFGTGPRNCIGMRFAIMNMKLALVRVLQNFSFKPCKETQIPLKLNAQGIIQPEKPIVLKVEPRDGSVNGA
Procedure: Inhibition potency (i.e. IC50) is determined by measuring the decrement in metabolism of P450-specific marker activities in pooled dog liver microsomes with increasing concentrations of CBD, CBDA, and hemp extracts. P450-specific markers include bupropion 6-hydroxylation (CYP2B11), dextromethorphan 0-demethylation (CYP2D15) and omeprazole sulfoxidation (CYP3A12). IC50 values are determined both with and without preincubation of liver microsomes with potential inhibitor to evaluate whether there is mechanism-based time-dependent inhibition.
The following parameters are assessed: (1) the rates of CBD and CBDA metabolism by dog liver microsomes and by 11 recombinant canine P450 enzymes; (2) the predicted percent contribution of each P450 to total CBD and CBDA metabolism in dog liver; and (3) IC50 values for inhibition of CYP2B11, CYP2D15 and CYP3A12 metabolism in dog liver, both with and without inhibitor preincubation.
FIGS. 13-15 show activity assays for CYP3A12 (FIGS. 13A and 13B), CYP2B11 (FIGS. 14A and 14B), and CYP2D15 (FIGS. 15A and 15B). Assays using either no preincubation (FIGS. 13A, 14A, and 15A) or 20 minutes of preincubation (FIGS. 13B, 14B, and 15B) were performed.

[3] = test system: D17 osteosarcoma cell line; experiment: 48 hours MTT proliferation assay, D17; type: cell-based, canine; conditions: pure compound
Procedure: 3-(4,5-Dimethylthaizol-2-yl)-2,5-diphenyltetrazolium bromide (MTT) assays are performed on all previously described cell lines; CMT12, HMPOS, D17, Abrams and 17-71. […] Cells are treated with vehicle (methanol or ethanol/DMSO mix) or various concentrations of the CBD, CBDA or CBD-rich hemp extract ranging from 0.42 to 20 μg/mL in serial dilution for 48 hours. MTT assays are performed after 48 hours of treatment by adding 20 μL of MTT dye ([…] filtered 5 mg/mL in phosphate-buffered saline [PBS]) to each well and incubating at 37° C. in 5% CO2 for 2 hours. The media is then aspirated, washed once with 200 μL of PBS and then solubilized in 200 μL of ethanol. Immediate analysis of the optical density of each well is performed using a spectrophotometric plate reader (Epoch; Biotek, Winooski, Vermont) at a wavelength of 570 nm as previously described (e.g., Vega-Avila E and Pugsley M K, An overview of colorimetric assay methods used to assess survival or proliferation of mammalian cells, Proc West Pharmacol Soc., 2011, 54, pp. 10-14 which is incorporated herein by reference in its entirety). The percent proliferating cells of control for each concentration is averaged and reported as a mean+/—SD from triplicate wells over three experiments.
For CBD, CBDA and hemp extract concentrations needed to obtain a 50% inhibition of cell proliferation (IC50) are then calculated across experiments by Probit analysis using XLFit5 software (IDBS, Guildford, United Kingdom) for reporting the results for each cell line.

C=C(C)[C@@H]1CCC(C)=C[C@H]1c1c(O)cc(CCCCC)cc1O [CBD, cannabidiol]
Cmax ([1]; single oral dose 2 mg/kg total CBD/CBDA (1 mg/kg CBD and 1 mg/kg CBDA), read-out: mean maximum CBD concentration (Cmax)): 301 ng/mL | AUC ([1]; single oral dose 2 mg/kg total CBD/CBDA, read-out: area under the curve (AUC)): 1300 ng·h/mL | Tmax ([1]; single oral dose 2 mg/kg total CBD/CBDA, read-out: time to maximal concentration (Tmax)): 1.4 h | AUC ([2]; read-out: area under the curve (AUC)): 164 ng·h/mL | Cmax ([2]; read-out: mean maximum CBD concentration (Cmax)): 43 ng/mL | Tmax ([2]; read-out: time to maximal concentration (Tmax)): 2 h | IC50 (CYP3A12): < 1 µM | time-dependent inhibition (TDI) (CYP3A12; CYP3A12, no preincubation vs 20 min preincubation, 10 μM): showed time-dependent inhibition (TDI) | IC50 ([3]; Canis lupus familiaris, read-out: IC50 (Probit)): 4.1 µg/mL (≈ 13 µM) | concentrations that significantly diminished proliferation vs vehicle control ([3]; P<0.05): ≥ 5 µg/mL

Source: US20240075087A1, “COMPOSITIONS AND METHODS COMPRISING HEMP EXTRACT FOR THE TREATMENT OF ANIMALS IN NEED” (Portland Technology Holdings LLC, priority 2021, published 2024)
